Reference: patent US20110206781A1, “METHOD TO MODULATE HEMATOPOIETIC STEM CELL GROWTH” (priority 2008, published 2011)

Key:
[1] = test system: runx1/cmyb+ HSCs in the zebrafish AGM; assay: runx1/cmyb in situ hybridization for HSC formation in zebrafish embryos at 36 hpf; assay type: in vivo; parameters: effect on HSC formation at 36 hpf when treatment occurred before the onset of heartbeat: dose or concentration left out as unconfirmed
Excerpt: In Situ Hybridizataion: Paraformaldehyde-fixed embryos were processed for in situ hybridization according to standard zebrafish protocols. Such protocols are available on-line through the The Zebrafish Model Organism Database. The following RNA probes were used: runx1, cmyb, flk1, ephrinB2, flt4, globin, mpo, mhc, and foxa3. Changes in expression compared to WT controls are reported as the number altered/number scored per genotype/treatment (North et al., 2007); a minimum of three independent experiments was conducted per analysis.
Chemical Exposure: Zebrafish embryos were exposed to chemicals at the doses indicated; dimethyl sulfoxide (DMSO) carrier content was 0.1%. For evaluation of HSC development, exposure ranged from early somitogenesis (5+ somites) until 36 hpf, unless otherwise noted.
(§1) Morpholino injection: Morpholino antisense oligonucleotides (MO; GENETOOLS, LLC, Philomath, Oreg.) designed against the ATG and exonl splice sites of nos1 (5′-[…] [SEQ. ID NO:1]; 5′-[…] [SEQ ID NO:2), nos2 (5′-[…] [SEQ ID NO:3]; 5′-[…] [SEQ ID NO:4]), and mismatched controls were injected into one-cell-stage embryos.

[2] = test system: HSCs; assay: in vivo confocal imaging of HSC number in cmyb:GFP; lmo2:dsRed embryos; parameters: species or system zebrafish; conditions: lmo2:dsRed reporter fish, p<0.001, n=5
Method: Confocal Microscopy: Fluorescent reporter embryos were exposed to blood flow modulators (10 μM, unless otherwise noted) as indicated, live embedded in 1% agarose, and imaged with a Zeiss LSM510 Meta confocal microscope at 36 hpf (North et al., 2007) or a Perkin Elmer UltaVIEW VoX spinning disk confocal microscope.

[3] = test system: nos1; assay: blastula transplantation of cmyb:GFP donor cells into lmo2:dsRed recipients; assay type: in vivo, zebrafish; conditions: 36 hpf, p=0.0065
Method: Blastula Transplantation: cmyb: GFP embryos were injected with nos1 or control MO at the one-cell stage. At the blastula stage, 100 cells were removed from the donor embryo and transplanted into stage-matched recipients. Embryos were analyzed by confocal microscopy at 36 hpf.
as §1

Compound: N=C(N)NCCC[C@H](N)C(=O)O [L-arg, L-arginine]
- effect on the sih hematopoietic defect (runx1/cmyb), in words ([1]; sih−/− embryos, 36 hpf): rescued the sih hematopoietic defect
- effect on HSCs (runx1/cmyb), in words ([1]; wild-type embryos, 36 hpf, bradykinin 10 μM): increased HSCs

Compound: CC(=O)N[C@H](C(=O)O)C(C)(C)SN=O [SNAP, S-nitroso-N-acetyl-penicillamine]
- effect on HSC formation at 36 hpf when treatment occurred before the onset of heartbeat ([1]; exposure 10 somites-23 hpf): capable of enhancing HSC number
- HSC number by confocal microscopy [2]: increased HSC numbers

Compound: nos1 ATG MO: morpholino antisense oligonucleotide against the ATG site of nos1, 5′-ACGCTGGGCTCTGATTCCTGCATTG, SEQ ID NO:1 (all phosphorodiamidate morpholino (PMO))
- donor cell contribution to GFP+ HSC formation in transplanted embryos [3]: none
